According to patent US6992085B2, “Octahydro-2H-pyrido[1,2-a]pyrazine compounds” (Les Laboratories Servier, priority 2001, dated 2006):

Biological target: T1, type H3 central histamine receptors (Mus musculus, UniProt P58406)
T1 construct: from tissue
Test: Cerebral dosages of N^t-methylhistamine in the NMRI mouse (ex vivo, RIA)
Conditions: NMRI mice, brain one hour after treatment, versus carrier controls
Description: The purpose of this study, which was carried out in accordance with the method of Taylor et al. (Biochem. […] An increase in the cerebral concentrations of N^t-methylhistamine indicates an increase in the turn-over of histamine by blockage of the type H3 central histamine receptors. […] One hour after the pharmacological treatment, the animals are sacrificed, and their brains are removed, frozen in liquid nitrogen, weighed and homogenised in 0.1N HClO4 at 4° C. […] The supernatants are recovered and divided into aliquots. The aliquots are frozen in liquid nitrogen and stored at −80° C. until analysis. Determination of the cerebral levels of N^t-methylhistamine is carried out by radioimmunological assay (RIA) using an assay kit. The tissue levels of N^t-methylhistamine are expressed in μg/g of fresh brain. The comparison of the cerebral levels of N^t-methylhistamine between animals treated with the carrier (controls) and animals treated with compounds of the present invention is carried out by single factor variance analysis followed, if necessary, by a complementary analysis (Dunnett test).

T1 sequence (P58406 whole entry): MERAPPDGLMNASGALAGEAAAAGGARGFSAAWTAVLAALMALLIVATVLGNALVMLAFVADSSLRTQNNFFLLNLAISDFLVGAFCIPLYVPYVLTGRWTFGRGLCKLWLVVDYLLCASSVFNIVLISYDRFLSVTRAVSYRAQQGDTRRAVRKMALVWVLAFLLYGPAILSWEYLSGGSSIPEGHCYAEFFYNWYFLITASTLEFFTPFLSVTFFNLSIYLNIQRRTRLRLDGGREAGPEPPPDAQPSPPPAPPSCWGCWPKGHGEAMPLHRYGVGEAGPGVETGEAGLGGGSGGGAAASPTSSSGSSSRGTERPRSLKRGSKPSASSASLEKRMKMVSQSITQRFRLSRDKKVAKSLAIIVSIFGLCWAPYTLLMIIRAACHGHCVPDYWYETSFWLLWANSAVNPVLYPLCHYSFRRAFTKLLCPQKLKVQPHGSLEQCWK

## N#Cc1ccc(OCCCN2CCN3CCCCC3C2)cc1.O=C(O)/C=C/C(=O)O.O=C(O)/C=C/C(=O)O (single isomer, unassigned) [Example 58, 4-(3-octahydro-2H-pyrido[1,2-a]pyrazin-2-ylpropoxy)benzonitrile difumarate, enantiomer β]
10 mg/kg IP, 10 mg/kg
  increase in endogenous cerebral concentrations of N^t-methylhistamine: 236%

## Cl.Cl.Cl.c1ccc2c(c1)ncn2CCCCN1CCN2CCCCC2C1 (stereo not shown) [Example 53, 2-[4-(1H-Benzimidazol-1-yl)butyl]octahydro-2H-pyrido[1,2-a]pyrazine trihydrochloride]
30 mg/kg IP
  increase in endogenous cerebral concentrations of N^t-methylhistamine: 89%

## Cl.Cl.c1ccc2c(c1)cnn2CCCCN1CCN2CCCCC2C1 (stereo not shown) [Example 55, 2-[4-(1H-Indazol-1-yl)butyl]octahydro-2H-pyridol[1,2-a]pyrazine dihydrochloride]
30 mg/kg IP
  increase in endogenous cerebral concentrations of N^t-methylhistamine: 124%

## N#Cc1ccc(OCCCN2CCN3CCCCC3C2)cc1.O=C(O)/C=C/C(=O)O.O=C(O)/C=C/C(=O)O (stereo not shown) [Example 56, 4-(3-Octahydro-2H-pyrido[1,2-a]pyrazin-2-ylpropoxy)benzonitrile difumarate]
10 mg/kg IP, difumarate, 10 mg/kg
  increase in endogenous cerebral concentrations of N^t-methylhistamine: 252%
